From patent US12139492B2 (Endotarget Inc., priority 2021, dated 2024)
Read-outs that look alike come from different tables or passages of the source.

Legend:
[1] = tested on: Mino cells; test: Antiproliferative effect, MTS cell viability assay, Mino cells; format: cell-based; details: Homo sapiens, MINO, Mino mantle cell lymphoma cells; read-out: IC50 (anti-proliferation) Mino cells
How it was run: (§1)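 MTS read-out, A490 of formazan from metabolically active cells; compound 0–10 μM (0, 0.001, 0.01, 0.1, 1, 10 μM), 72 h exposure.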

[2] = target: BTK (Homo sapiens, UniProt Q06187); test: Degradation of BTK protein in Namalwa cells (Western blot; DC50, Dmax); details: for DC50: cell line not given
Sequence of BTK (Q06187 whole entry): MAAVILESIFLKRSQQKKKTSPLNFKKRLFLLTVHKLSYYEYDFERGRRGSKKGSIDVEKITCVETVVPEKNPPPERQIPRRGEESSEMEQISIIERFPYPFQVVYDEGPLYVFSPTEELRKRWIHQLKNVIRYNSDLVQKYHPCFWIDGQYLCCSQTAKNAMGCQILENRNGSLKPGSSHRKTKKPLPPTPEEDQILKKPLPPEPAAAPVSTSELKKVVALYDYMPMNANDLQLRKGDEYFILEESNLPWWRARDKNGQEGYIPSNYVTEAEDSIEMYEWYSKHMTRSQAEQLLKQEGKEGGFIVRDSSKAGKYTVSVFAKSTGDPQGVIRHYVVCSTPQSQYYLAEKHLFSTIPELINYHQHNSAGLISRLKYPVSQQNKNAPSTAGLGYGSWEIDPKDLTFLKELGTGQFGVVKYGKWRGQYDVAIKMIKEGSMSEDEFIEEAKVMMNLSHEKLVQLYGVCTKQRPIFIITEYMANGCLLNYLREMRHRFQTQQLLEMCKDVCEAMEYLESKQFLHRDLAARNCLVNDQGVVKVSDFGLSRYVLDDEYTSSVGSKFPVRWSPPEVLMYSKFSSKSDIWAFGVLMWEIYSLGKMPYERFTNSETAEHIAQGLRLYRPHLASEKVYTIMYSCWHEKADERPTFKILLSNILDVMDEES

[3] = tested on: JeKo-1 cells; test: Antiproliferative effect, MTS cell viability assay, JeKo-1 cells; format: cell-based; details: Homo sapiens; JeKo-1 mantle cell lymphoma cells; read-out: IC50 (anti-proliferation) JeKO-1 cells
How it was run: as §1

[4] = read-out: DC50 (BTK degradation), concentration giving 50% reduction of BTK expression level
[5] = read-out: Dmax (BTK degradation)

| SMILES | IC50 [1] [nM] | Dmax [2] [%] | DC50 ([2]; BTK degradation) [nM] | IC50 [3] [nM] | DC50 [2, 4] [nM] | Dmax [2, 5] [%] |
| --- | --- | --- | --- | --- | --- | --- |
| Nc1ncnc2c1c(-c1ccc(Oc3ccccc3)cc1)nn2C1CCN(C2CCN(C(=O)N3CCC(CC4CCN(c5ccc6c(c5)CN(C5CCC(=O)NC5=O)C6=O)CC4)CC3)CC2)CC1 (stereo not shown) [Compound 238, 3-(5-(4-((1-(4-(4-amino-3-(4-phenoxyphenyl)-1H-pyrazolo[3,4-d]pyrimidin-1-yl)-[1,4′-bipiperidine]-1′-carbonyl)piperidin-4-yl)methyl)piperidin-1-yl)-1-oxoisoindolin-2-yl)piperidine-2,6-dione] | < 1000 | > 90 | < 10 | 1000 to 10000 |  |  |
| Nc1ncnc2c1c(-c1ccc(Oc3ccccc3)cc1)nn2C1CCC(C(=O)NCCN2CCN(c3ccc4c(c3)C(=O)N(C3CCC(=O)NC3=O)C4=O)CC2)CC1 (stereo not shown) [Compound 522, 4-(4-amino-3-(4-phenoxyphenyl)-1H-pyrazolo[3,4-d]pyrimidin-1-yl)-N-(2-(4-(2-(2,6-dioxopiperidin-3-yl)-1,3-dioxoisoindolin-5-yl)piperazin-1-yl)ethyl)cyclohexane-1-carboxamide] | < 1000 |  |  | < 1000 | < 10 | > 90 |
| NC(=O)c1c(-c2ccc(Oc3ccccc3)cc2)nn2c1NCC[C@H]2C1CCN(CC2CCN(C(=O)N3CCC(N4CCN(c5ccc6c(c5)C(=O)N(C5CCC(=O)NC5=O)C6=O)CC4)CC3)CC2)CC1 (stereo partly drawn) [Compound 403, (7S)-7-(1-((1-(4-(4-(2-(2,6-dioxopiperidin-3-yl)-1,3-dioxoisoindolin-5-yl)piperazin-1-yl)piperidine-1-carbonyl)piperidin-4-yl)methyl)piperidin-4-yl)-2-(4-phenoxyphenyl)-4,5,6,7-tetrahydropyrazolo[1,5-a]pyrimidine-3-carboxamide] | < 1000 |  |  | < 1000 | 10 to 50 | > 90 |
| Nc1ncnc2c1c(-c1ccc(Oc3ccccc3)cc1)nn2C1CCN(C2CCN(CCC3CCN(c4ccc5c(c4)C(=O)N(C4CCC(=O)NC4=O)C5=O)CC3)CC2)CC1 (stereo not shown) [Compound 215, 5-(4-(2-(4-(4-amino-3-(4-phenoxyphenyl)-1H-pyrazolo[3,4-d]pyrimidin-1-yl)-[1,4′-bipiperidin]-1′-yl)ethyl)piperidin-1-yl)-2-(2,6-dioxopiperidin-3-yl)isoindoline-1,3-dione] | 1000 to 10000 | > 75 | 10 to 50 | < 1000 |  |  |
| Nc1ncnc2c1c(-c1ccc(Oc3ccccc3)cc1)nn2C1CCN(CCN2CCC(CN3CCN(c4ccc5c(c4)CN(C4CCC(=O)NC4=O)C5=O)CC3)CC2)CC1 (stereo not shown) [Compound 454, 3-(5-(4-((1-(2-(4-(4-amino-3-(4-phenoxyphenyl)-1H-pyrazolo[3,4-d]pyrimidin-1-yl)piperidin-1-yl)ethyl)piperidin-4-yl)methyl)piperazin-1-yl)-1-oxoisoindolin-2-yl)piperidine-2,6-dione] | > 10000 |  |  | 1000 to 10000 | > 50 | > 50 |
| NC(=O)c1c(-c2ccc(Oc3ccccc3)cc2)nn2c1NCCC2C1CCN(CC2CCN(C(=O)N3CCC(CC4CCN(c5ccc6c(c5)C(=O)N(C5CCC(=O)NC5=O)C6=O)CC4)CC3)CC2)CC1 (stereo not shown) [Compound 373, 7-(1-((1-(4-((1-(2-(2,6-dioxopiperidin-3-yl)-1,3-dioxoisoindolin-5-yl)piperidin-4-yl)methyl)piperidine-1-carbonyl)piperidin-4-yl)methyl)piperidin-4-yl)-2-(4-phenoxyphenyl)-4,5,6,7-tetrahydropyrazolo[1,5-a]pyrimidine-3-carboxamide] | 1000 to 10000 | > 75 | 10 to 50 | > 10000 |  |  |
| NC(=O)c1c(-c2ccc(Oc3ccccc3)cc2)nn2c1NCC[C@H]2C1CCN(C2CCN(C(=O)N3CCN(Cc4ccc5c(c4)C(=O)N(C4CCC(=O)NC4=O)C5=O)CC3)CC2)CC1 (stereo partly drawn) [Compound 379, (7S)-7-(1′-(4-((2-(2,6-dioxopiperidin-3-yl)-1,3-dioxoisoindolin-5-yl)methyl)piperazine-1-carbonyl)-[1,4′-bipiperidin]-4-yl)-2-(4-phenoxyphenyl)-4,5,6,7-tetrahydropyrazolo[1,5-a]pyrimidine-3-carboxamide] | > 10000 | > 75 | > 50 | > 10000 |  |  |
| NC1=NC=NC2C1C(c1ccc(Oc3ccccc3)cc1)=NN2C1CCN(C(=O)N2CCN(C3CN(c4ccc5c(c4)CN(C4CCC(=O)NC4=O)C5=O)C3)CC2)CC1 (stereo not shown) [Compound 504, 3-(5-(3-(4-(4-(4-amino-3-(4-phenoxyphenyl)-3a,7a-dihydro-1H-pyrazolo[3,4-d]pyrimidin-1-yl)piperidine-1-carbonyl)piperazin-1-yl)azetidin-1-yl)-1-oxoisoindolin-2-yl)piperidine-2,6-dione] | < 1000 |  |  | < 1000 | < 10 | > 90 |
| NC(=O)c1c(-c2ccc(Oc3ccccc3)cc2)nn2c1NCCC2C1CCN(CC2CCN(CCC3CCN(c4ccc5c(c4)CN(C4CCC(=O)NC4=O)C5=O)CC3)CC2)CC1 (stereo not shown) [Compound 318, 7-(1-((1-(2-(1-(2-(2,6-dioxopiperidin-3-yl)-1-oxoisoindolin-5-yl)piperidin-4-yl)ethyl)piperidin-4-yl)methyl)piperidin-4-yl)-2-(4-phenoxyphenyl)-4,5,6,7-tetrahydropyrazolo[1,5-a]pyrimidine-3-carboxamide] | 1000 to 10000 | > 75 | > 50 | > 10000 |  |  |
| NC(=O)c1c(-c2ccc(Oc3ccccc3)cc2)nn2c1NCCC2C1CCN(CC2CCN(C(=O)N3CCC(CC4CCN(c5ccc6c(c5)CN(C5CCC(=O)NC5=O)C6=O)CC4)CC3)CC2)CC1 (stereo not shown) [Compound 374, 7-(1-((1-(4-((1-(2-(2,6-dioxopiperidin-3-yl)-1-oxoisoindolin-5-yl)piperidin-4-yl)methyl)piperidine-1-carbonyl)piperidin-4-yl)methyl)piperidin-4-yl)-2-(4-phenoxyphenyl)-4,5,6,7-tetrahydropyrazolo[1,5-a]pyrimidine-3-carboxamide] | 1000 to 10000 | > 75 | 10 to 50 | > 10000 |  |  |
| NC(=O)c1c(-c2ccc(Oc3ccccc3)cc2)nn2c1NCC[C@H]2C1CCN(C(=O)N2CCN(CCC3CCN(c4ccc5c(c4)C(=O)N(C4CCC(=O)NC4=O)C5=O)CC3)CC2)CC1 (stereo partly drawn) [Compound 299, (7S)-7-(1-(4-(2-(1-(2-(2,6-dioxopiperidin-3-yl)-1,3-dioxoisoindolin-5-yl)piperidin-4-yl)ethyl)piperazine-1-carbonyl)piperidin-4-yl)-2-(4-phenoxyphenyl)-4,5,6,7-tetrahydropyrazolo[1,5-a]pyrimidine-3-carboxamide] | 1000 to 10000 | > 75 | 10 to 50 | 1000 to 10000 |  |  |
| Nc1ncnc2c1c(-c1ccc(Oc3ccccc3)cc1)nn2C1CCN(CC2CCN(CCCN3CCN(c4ccc5c(c4)CN(C4CCC(=O)NC4=O)C5=O)CC3)CC2)CC1 (stereo not shown) [Compound 208, 3-(5-(4-(3-(4-((4-(4-amino-3-(4-phenoxyphenyl)-1H-pyrazolo[3,4-d]pyrimidin-1-yl)piperidin-1-yl)methyl)piperidin-1-yl)propyl)piperazin-1-yl)-1-oxoisoindolin-2-yl)piperidine-2,6-dione] | > 10000 | > 75 | > 50 | > 10000 |  |  |
| Nc1ncnc2c1c(-c1ccc(Oc3ccccc3)cc1)nn2C1CCN(C2CCN(CCN3CCC(c4ccc5c(c4)CN(C4CCC(=O)NC4=O)C5=O)CC3)CC2)CC1 (stereo not shown) [Compound 220, 3-(5-(1-(2-(4-(4-amino-3-(4-phenoxyphenyl)-1H-pyrazolo[3,4-d]pyrimidin-1-yl)-[1,4′-bipiperidin]-1′-yl)ethyl)piperidin-4-yl)-1-oxoisoindolin-2-yl)piperidine-2,6-dione] | 1000 to 10000 | > 75 | 10 to 50 | 1000 to 10000 |  |  |
| NC(=O)c1c(-c2ccc(Oc3ccccc3)cc2)nn2c1NCC[C@H]2C1CCN(C(=O)N2CCC(CN3CCC(c4ccc5c(c4)CN(C4CCC(=O)NC4=O)C5=O)CC3)CC2)CC1 (stereo partly drawn) [Compound 296, (7S)-7-(1-(4-((4-(2-(2,6-dioxopiperidin-3-yl)-1-oxoisoindolin-5-yl)piperidin-1-yl)methyl)piperidine-1-carbonyl)piperidin-4-yl)-2-(4-phenoxyphenyl)-4,5,6,7-tetrahydropyrazolo[1,5-a]pyrimidine-3-carboxamide] | < 1000 | > 90 | < 10 | 1000 to 10000 |  |  |
| Nc1ncnc2c1c(-c1ccc(Oc3ccccc3)cc1)nn2C1CCN(C(=O)NCCN2CCN(c3ccc4c(c3)C(=O)N(C3CCC(=O)NC3=O)C4=O)CC2)CC1 (stereo not shown) [Compound 520, 4-(4-amino-3-(4-phenoxyphenyl)-1H-pyrazolo[3,4-d]pyrimidin-1-yl)-N-(2-(4-(2-(2,6-dioxopiperidin-3-yl)-1,3-dioxoisoindolin-5-yl)piperazin-1-yl)ethyl)piperidine-1-carboxamide] | < 1000 |  |  | < 1000 | 10 to 50 | > 90 |
| NC(=O)c1c(-c2ccc(Oc3ccccc3)cc2)nn2c1NCCC2C1CCN(C(=O)N2CCN(CC3CCN(c4ccc5c(c4)CN(C4CCC(=O)NC4=O)C5=O)CC3)CC2)CC1 (stereo not shown) [Compound 274, 7-(1-(4-((1-(2-(2,6-dioxopiperidin-3-yl)-1-oxoisoindolin-5-yl)piperidin-4-yl)methyl)piperazine-1-carbonyl)piperidin-4-yl)-2-(4-phenoxyphenyl)-4,5,6,7-tetrahydropyrazolo[1,5-a]pyrimidine-3-carboxamide] | < 1000 | > 90 | < 10 | < 1000 |  |  |
